Test results taken from patent US11267814B2, “Compounds for bone growth” (OsteoQC Inc., priority 2013, dated 2022).
Where a name gives a salt, the structure may show the parent alone.

Tests used:
MC3T3 osteoblast cells = experiment: Osteocalcin (OCN) secretion, bone formation marker, ELISA; type: cell-based, mouse; details: Mus musculus; IC100 class; OCN secreted from MC3T3 osteoblast cells treated with sclerostin
Procedure: Bone formation can also be assayed in vitro or in vivo using a serum marker for bone formation, osteocalcin (OCN), available from Biomedical Tecnhnologies, Inc. (Stoughton, Mass.). Following the manufacturer's protocol for the mouse osteocalcin EIA kit (described at the website www.btiinc.com/page/cata2.html#mouse_osteocalcin), bone formation in MC3T3 osteoblast cells was assayed by measuring the concentration of OCN.

hERG potassium channel = biological target: T1, hERG potassium channel (Homo sapiens, UniProt Q12809); experiment: hERG automated patch clamp assay; type: cell-based; details: inhibition of hERG tail current, 5 minutes at room temperature, CHO-K1 cells stably expressing hERG
T1 construct: expressed in transfected cells; host or cells: CHO-K1
T1 sequence (Q12809 whole entry): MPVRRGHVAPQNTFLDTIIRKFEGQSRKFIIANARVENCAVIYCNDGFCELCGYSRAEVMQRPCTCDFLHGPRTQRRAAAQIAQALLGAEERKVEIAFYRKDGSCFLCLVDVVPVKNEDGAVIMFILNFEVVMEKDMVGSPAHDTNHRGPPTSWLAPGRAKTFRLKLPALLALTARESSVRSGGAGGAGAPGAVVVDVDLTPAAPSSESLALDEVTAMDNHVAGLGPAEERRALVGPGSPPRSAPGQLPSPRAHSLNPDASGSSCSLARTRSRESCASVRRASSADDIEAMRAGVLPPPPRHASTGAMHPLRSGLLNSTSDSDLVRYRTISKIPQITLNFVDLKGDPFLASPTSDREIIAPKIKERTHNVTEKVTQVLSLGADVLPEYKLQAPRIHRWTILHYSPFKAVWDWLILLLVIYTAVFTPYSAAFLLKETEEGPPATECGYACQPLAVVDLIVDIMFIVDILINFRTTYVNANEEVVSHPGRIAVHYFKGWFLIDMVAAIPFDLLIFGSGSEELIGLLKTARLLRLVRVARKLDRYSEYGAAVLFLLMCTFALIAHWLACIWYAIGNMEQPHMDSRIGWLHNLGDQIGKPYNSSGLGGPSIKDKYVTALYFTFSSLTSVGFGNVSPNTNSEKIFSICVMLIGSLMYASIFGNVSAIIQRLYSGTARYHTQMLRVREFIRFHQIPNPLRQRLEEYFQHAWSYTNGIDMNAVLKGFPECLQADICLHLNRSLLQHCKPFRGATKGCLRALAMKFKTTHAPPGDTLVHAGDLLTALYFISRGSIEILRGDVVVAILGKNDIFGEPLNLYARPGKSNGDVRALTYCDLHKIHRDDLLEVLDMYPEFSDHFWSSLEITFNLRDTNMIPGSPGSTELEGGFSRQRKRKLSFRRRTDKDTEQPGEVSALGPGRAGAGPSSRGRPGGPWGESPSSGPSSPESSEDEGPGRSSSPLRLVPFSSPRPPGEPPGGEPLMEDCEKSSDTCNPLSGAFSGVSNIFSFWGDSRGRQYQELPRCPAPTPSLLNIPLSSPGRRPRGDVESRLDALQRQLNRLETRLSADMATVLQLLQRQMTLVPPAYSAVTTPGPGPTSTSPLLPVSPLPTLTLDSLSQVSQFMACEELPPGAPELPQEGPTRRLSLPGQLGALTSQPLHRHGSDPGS
Procedure: One major type of cardiovascular toxicity associated with pharmaceutical drugs is caused by drug effects on cardiac ion channels like hERG. Drug-induced inhibition of hERG results in a prolonged QT interval, which can lead to a life-threatening ventricular arrhythmia. Therefore, the inhibitory effect of compounds described in Examples 1-46 on the hERG potassium channel was evaluated using an automated patch clamp assay as described in Mathes, C. (2006) Expert Opin. Ther. Targets, 10 (2): 319-327. CHO-K1 cells stably expressing hERG channels were used.

[1] = tested on: MC3T3-E1 (mouse calvarial) osteoblast cells; experiment: Rescue of sclerostin inhibition of mineralization (total calcium); type: cell-based; details: Mus musculus, MC3T3-E1; IC100 class; calcium concentration, MC3T3 osteoblast cells treated with sclerostin; read-out: Sclerostin Inhibition of Mineralization; improvement over sclerostin alone.
Procedure: Mineralization (crystalline calcium phosphate formation) represents an in vitro model of bone formation. […] Following the protocol described in Li et al., Compounds were assayed for their ability to rescue the inhibition of mineralization by sclerostin in MC3T3 osteoblast cells.

sclerostin = biological target: T2, sclerostin (Homo sapiens, UniProt Q9BQB4); experiment: Modulation of sclerostin/Wnt activity (sclerostin inhibition assay): restoring Wnt3a signaling in the presence of sclerostin; type: cell-based; details: IC100 class; Wnt3a signaling in human embryonic cells in presence of sclerostin
T2 construct: host or cells: human embryonic cells (reporter cells)
T2 sequence (Q9BQB4 24-213): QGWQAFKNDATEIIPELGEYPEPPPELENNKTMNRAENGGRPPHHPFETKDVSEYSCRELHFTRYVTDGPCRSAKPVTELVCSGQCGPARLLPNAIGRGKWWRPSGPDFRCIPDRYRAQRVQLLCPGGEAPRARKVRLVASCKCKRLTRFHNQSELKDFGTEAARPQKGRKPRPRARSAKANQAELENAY

Sclerostin Inhibition Assay; improvement over sclerostin alone. (sclerostin) | SMILES | IC100 (MC3T3 osteoblast cells) | hERG (1uM) (hERG potassium channel) | IC100 [1]
++ (++ indicates an IC100 < 10 μM) | COc1ccc2c3ccnc(C)c3n(CC(C)N(C)C)c2c1 (centres unmarked) [Example 3, 1-(7-methoxy-1-methyl-9H-pyrido[3,4-b]indol-9-yl)-N,N-dimethylpropan-2-aminium formate] | < 10 µM | + (+ indicates less than 50% inhibition of hERG tail current) | < 10 µM
++ (++ indicates an IC100 < 10 μM) | Cc1nccc2c3ccc(O)cc3n(CC(C)N(C)C)c12 (centres unmarked) [Example 4, 9-(2-(dimethylamino)propyl)-1-methyl-9H-pyrido[3,4-b]indol-7-ol] | < 10 µM | + (+ indicates less than 50% inhibition of hERG tail current) | < 10 µM
++ (++ indicates an IC100 < 10 μM) | COc1ccc2c3ccnc(C)c3n(CC(C)N3CCOCC3)c2c1 (centres unmarked) [Example 8, 4-(1-(7-methoxy-1-methyl-9H-pyrido[3,4-b]indol-9-yl)propan-2-yl) morpholine] | < 10 µM | + (+ indicates less than 50% inhibition of hERG tail current) | < 10 µM
++ (++ indicates an IC100 < 10 μM) | COc1ccc2c3ccnc(C)c3n(CC(C)N3CCCCC3)c2c1 (centres unmarked) [Example 9, 7-methoxy-1-methyl-9-(2-(piperidin-1-yl)propyl)-9H-pyrido[3,4-b]indole] | < 10 µM | + (+ indicates less than 50% inhibition of hERG tail current) | < 10 µM
++ (++ indicates an IC100 < 10 μM) | COc1ccc2c3ccnc(C)c3n(CCN3CCCCC3)c2c1 [Example 10, 7-methoxy-1-methyl-9-(2-(piperidin-1-yl)ethyl)-9H-pyrido[3,4-b]indole] | < 10 µM | + (+ indicates less than 50% inhibition of hERG tail current) | < 10 µM
++ (++ indicates an IC100 < 10 μM) | COc1ccc2c3ccnc(C)c3n(CCCN3CCOCC3)c2c1 [Example 11, 4-(3-(7-methoxy-1-methyl-9H-pyrido[3,4-b]indol-9-yl)propyl)morpholine formate] | < 10 µM | + (+ indicates less than 50% inhibition of hERG tail current) | < 10 µM
++ (++ indicates an IC100 < 10 μM) | COc1ccc2c3ccnc(C)c3n(CCN3CCOCC3)c2c1 [Example 12, 4-(2-(7-methoxy-1-methyl-9H-pyrido[3,4-b]indol-9-yl)ethyl)morpholine] | < 10 µM | + (+ indicates less than 50% inhibition of hERG tail current) | < 10 µM
++ (++ indicates an IC100 < 10 μM) | Cc1nccc2c3ccc(O)cc3n(CCN3CCOCC3)c12 [Example 13, 1-methyl-9-(2-morpholinoethyl)-9H-pyrido[3,4-b]indol-7-ol] | < 10 µM | + (+ indicates less than 50% inhibition of hERG tail current) | < 10 µM
++ (++ indicates an IC100 < 10 μM) | COc1ccc2c3ccnc(C)c3n(CCCN3CCN(C(=O)OC(C)(C)C)CC3)c2c1 [Example 15, t-butyl 4-(3-(7-methoxy-1-methyl-9H-pyrido[3,4-b]indol-9-yl)propyl) piperazine-1-carboxylate] | < 10 µM | ++ (++ indicates more than 50% inhibition of hERG tail current) | < 10 µM
++ (++ indicates an IC100 < 10 μM) | COc1ccc2c3ccnc(C)c3n(CCCN3CCNCC3)c2c1 [Example 17, 7-methoxy-1-methyl-9-(3-(piperazin-1-yl)propyl)-9H-pyrido[3,4-b]indole trifluoroacetate] | < 10 µM | + (+ indicates less than 50% inhibition of hERG tail current) | < 10 µM
++ (++ indicates an IC100 < 10 μM) | COc1ccc2c3ccnc(C)c3n(CCN(C)CCO)c2c1 [Example 18, 2-((2-(7-methoxy-1-methyl-9H-pyrido[3,4-b]indol-9-yl)ethyl)(methyl)amino)ethanol] | < 10 µM | + (+ indicates less than 50% inhibition of hERG tail current) | < 10 µM
+ (+ indicates an IC100 > 10 μM) | COc1ccc2c(c1)[nH]c1c(C)[n+]([O-])ccc12 [Example 21, 7-methoxy-1-methyl-9H-pyrido[3,4-b]indole pyridine N-oxide] | > 10 µM | + (+ indicates less than 50% inhibition of hERG tail current) | > 10 µM
++ (++ indicates an IC100 < 10 μM) | COc1ccc2c3ccnc(C(F)(F)F)c3n(CCN3CCOCC3)c2c1 [Example 25, 4-(2-(7-methoxy-1-(trifluoromethyl)-9H-pyrido[3,4-b]indol-9-yl)ethyl) morpholine] | < 10 µM | + (+ indicates less than 50% inhibition of hERG tail current) | < 10 µM
++ (++ indicates an IC100 < 10 μM) | COc1ccc2c3ccnc(C(F)(F)F)c3n(CC(C)N(C)C)c2c1 (centres unmarked) [Example 27, 1-(7-methoxy-1-(trifluoromethyl)-9H-pyrido[3,4-b]indol-9-yl)-N,N-dimethylpropan-2-amine] | < 10 µM | + (+ indicates less than 50% inhibition of hERG tail current) | < 10 µM
++ (++ indicates an IC100 < 10 μM) | CC1(C)COCCN1CCn1c2cc(O)ccc2c2ccnc(C(F)(F)F)c21 [Example 32, 9-(2-(3,3-dimethylmorpholino)ethyl)-1-(trifluoromethyl)-9H-pyrido[3,4-b]indol-7-ol] | < 10 µM | + (+ indicates less than 50% inhibition of hERG tail current) | < 10 µM
++ (++ indicates an IC100 < 10 μM) | COc1ccc2c3ccnc(C(F)(F)F)c3n(CCN(CCO)CCO)c2c1 [Example 35, 2,2′-((2-(7-methoxy-1-(trifluoromethyl)-9H-pyrido[3,4-b]indol-9-yl)ethyl)azanediyl)diethanol] | < 10 µM | + (+ indicates less than 50% inhibition of hERG tail current) | < 10 µM
++ (++ indicates an IC100 < 10 μM) | COc1ccc2c(c1)[nH]c1c(C)ccnc12 [Example 37, 7-methoxy-4-methyl-5H-pyrido[3,2-b]indole] | < 10 µM | + (+ indicates less than 50% inhibition of hERG tail current) | < 10 µM
++ (++ indicates an IC100 < 10 μM) | COc1ccc2c(c1)[nH]c1c(C)nc(OC)cc12 [Example 40, 3,7-dimethoxy-1-methyl-9H-pyrido[3,4-b]indole] | < 10 µM | + (+ indicates less than 50% inhibition of hERG tail current) | < 10 µM

SMILES | Sclerostin Inhibition Assay; improvement over sclerostin alone. (sclerostin) | IC100 (MC3T3 osteoblast cells) | hERG (1uM) (hERG potassium channel) | IC100 [1]
CC(Cn1c2ccccc2c2cccnc21)N(C)C (centres unmarked) [Example 1, N,N-dimethyl-1-(9H-pyrido[2,3-b]indol-9-yl)propan-2-amine] | + (+ indicates an IC100 > 10 μM) | > 10 µM | + (+ indicates less than 50% inhibition of hERG tail current) | > 10 µM
COc1ccc2c(c1)[nH]c1c(C(F)(F)F)nccc12 [Example 22, 7-methoxy-1-(trifluoromethyl)-9H-pyrido[3,4-b]indole] | ++ (++ indicates an IC100 < 10 μM) | < 10 µM | + (+ indicates less than 50% inhibition of hERG tail current) | < 10 µM
